# According to publication PMC12830207, “Targeting the protein–protein interaction between the CDC37 cochaperone and client kinases by an allosteric RAF dimer breaker” (The Journal of Biological Chemistry, 2025):
# What was measured:
# [1] = test system: CDC37–CRAF interaction; experiment: Co-IP of CDC37-FLAG with CRAF-HA in HEK293; type: cell-based, human (HEK293); settings: HEK293, 25 μM braftide, bortezomib pretreatment
# Protocol: HEK293 cells were seeded at 1(10)^6 cells per well for a 6-well plate or 5(10)^6 for 10 cm dishes and incubated until 40% to 60% confluency. Transfection was carried out using a 1:3 DNA:PEI-MAX ratio in OPTI-MEM and allowed 48 h for protein expression. For peptide assays, 48 h post-transfection, cells were treated with TAT–braftide carried in OPTI-MEM at indicated concentrations. Cells were harvested in cold PBS. Harvested cells were lysed in 4% SDS or modified radioimmunoprecipitation assay (RIPA) for co-IP experiments. Quantification of total protein by the bicinchoninic acid assay was carried out according to the manufacturer's protocols (Pierce; catalog no.: 23225).
# Transfected HEK293 cells were treated with the indicated treatments and harvested in cold PBS. […] Samples were analyzed via immunoblot.
# Western blot band densities were quantified with ImageJ software (National Institutes of Health) and normalized to the indicated loading control. Statistical significance was determined through one-/two-way ANOVA, where indicated, followed by Tukey's honest significant difference post hoc test with corresponding p values (∗p < 0.05, ∗∗p < 0.002, ∗∗∗p < 0.0002, and ∗∗∗∗p < 0.0001). […]
# [2] = test system: BRAF–CDC37 interaction; experiment: NanoBiT luminescence CDC37–RAF interaction reporter assay, BRAF^SmBiT–CDC37^LgBiT; type: cell-based, human (HEK293)
# Excerpt: NanoBiT cytomegalovirus MCS BiBiT vector, which contains a BRAF N terminal fused with LgBiT and CRAF N terminal fused with SmBiT, was purchased from Promega. CDC37 LgBiT and CRAF SmBiT was generated using the standard Gibson Assembly (NEB HiFi Assembly) using NanoBiT BiBiT as the vector and following primers: 5′ […] 3′, 5′ […] 3′, 5′ […] 3′, 5′ […] 3′, and CDC37 LgBiT and BRAF SmBiT was generated using the standard Gibson Assembly using NanoBiT BiBiT as the vector and following primers: 5′ […] 3′, 5′ […] 3′, 5′ […] 3′, 5′ […] 3′. Primers were designed to introduce H20A, N22A, I23A triple mutation within the CDC37 FLAG tag and for NanoBiT construct CDC37(HNI/A) LgBit and BRAF SmBiT. Primers were designed to introduce the desired substitutions. The forward primer sequence was 5′ gccgcc[…] 3′, and the reverse primer sequence was 5′ gggggc[…] 3′. Site-directed mutagenesis was carried out using the Q5 Site-Directed Mutagenesis Kit (NEB; E0554) following the manufacturer's protocol.
# Twenty-four hours post-transfection, cells were trypsinized, pelleted, resuspended in OptiMEM + 4% fetal bovine serum, and reseeded onto a 96-well plate at 5(10)^4 cells per well and then incubated at 37 °C overnight. Cells were pretreated with 1 μM bortezomib for 5 h and then braftide for 4 h at 0 and 25 μM. After treatment, 10 μM furimazine substrate was added to each well, and luminescence readings were taken at 470 to 480 nm using a CLARIOstar plate reader. Statistical significance was determined through a paired t test where indicated, followed by Tukey's honest significant difference post hoc test with corresponding p values (∗p < 0.05, ∗∗p < 0.01, and ∗∗∗p < 0.001). All graph bars represent the mean ± SD with individual data points per biological replicate with corresponding p values.
substance,measurement,setting,value
GRKKRRQRRRPQ-miniPEG-TRHVNILLFM [Braftide],CDC37–CRAF complex,[1],reduced the CDC37–client BRAF–CRAF complex
same,"NanoBiT luminescence, BRAF^SmBiT–CDC37^LgBiT","[2]; HEK293, 25 μM braftide, 4 h, 1 μM bortezomib pretreatment 5 h, 10 μM furimazine, 470 to 480 nm","reduction in luminescence, reflecting a decrease in the CDC37–RAF interaction"
same,protein levels of NanoBiT constructs (immunoblot control),"[2]; HEK293, braftide, bortezomib pretreatment, BRAF and CRAF constructs (Fig. 1, K and M)",protein levels remained the same with bortezomib pretreatment
